Laboratory results taken from US12071441B2, “10-(di(phenyl)methyl)-4-hydroxy-8,9,9A,10-tetrahydro-7H-pyrrolo[1′,2′:4,5]pyrazino[1,2-b]pyridazine-3,5-dione derivatives and related compounds as inhibitors of the orthomyxovirus replication for treating influenza” (Novartis AG, priority 2018, dated 2024).

Assays:
Experiment in all cases: microbe, parasite or virus in culture
Assay type in all cases: cell-based
[1] = test system: influenza A virus minigenome (PB2, PB1, PA, NP; luciferase reporter) in 293T cells, RNP_Alaska; settings: HEK-293T, 48 h
[2] = test system: influenza A virus minigenome (PB2, PB1, PA, NP; luciferase reporter) in 293T cells, RNP_Hubei; settings: HEK-293T, 48 h
[3] = test system: influenza A virus minigenome (PB2, PB1, PA, NP; luciferase reporter) in 293T cells, RNP_CAL; settings: HEK-293T, 48 h, read-out: RNP_CAL_EC50

Question: How did the EC50 [1] turn out when `COc1ccccc1[C@H](c1ccc(F)cc1)[C@H]1[C@H]2CCCN2C(=O)c2c(O)c(=O)cnn21` [Example 6, (9aR,10S)-10-((S)-(4-fluorophenyl)(2-methoxyphenyl)methyl)-4-hydroxy-8,9,9a,10-tetrahydro-7H-pyrrolo[1′,2′:4,5]pyrazino[1,2-b]pyridazine-3,5-dione] was run?
Answer: Its EC50 is 100 to 1000 nM.

Question: What about the EC50 [2] of the same molecule?
Answer: Its EC50 is 100 to 1000 nM.

Question: And the EC50 [3]?
Answer: The EC50 was 100 to 1000 nM.

Question: Which results are given for `COc1ccc([C@H](c2ccc(F)cc2)[C@H]2[C@H]3CCCN3C(=O)c3c(O)c(=O)cnn32)cc1` [Example 7, (9aR,10S)-10-((R)-(4-fluorophenyl)(4-methoxyphenyl)methyl)-4-hydroxy-8,9,9a,10-tetrahydro-7H-pyrrolo[1′,2′:4,5]pyrazino[1,2-b]pyridazine-3,5-dione]?
Answer: EC50 [1]: 100 to 1000 nM; EC50 [2]: 100 to 1000 nM; EC50 [3]: 100 to 1000 nM

Question: Which results are given for `O=C1c2c(O)c(=O)cnn2[C@@H]([C@H](c2ccccc2F)c2cccc(F)c2F)[C@H]2CCCN12` [Example 8, (9aR,10S)-10-((R)-(2,3-difluorophenyl)(2-fluorophenyl)methyl)-4-hydroxy-8,9,9a,10-tetrahydro-7H-pyrrolo[1′,2′:4,5]pyrazino[1,2-b]pyridazine-3,5-dione]?
Answer: EC50 [1]: < 100 nM; EC50 [2]: < 100 nM; EC50 [3]: < 100 nM

Question: Which results are given for `COc1cccc([C@H](c2ccc(F)cc2)[C@H]2[C@H]3CCCN3C(=O)c3c(O)c(=O)cnn32)c1` [Example 9, (9aR,10S)-10-((S)-(4-fluorophenyl)(3-methoxyphenyl)methyl)-4-hydroxy-8,9,9a,10-tetrahydro-7H-pyrrolo[1′,2′:4,5]pyrazino[1,2-b]pyridazine-3,5-dione]?
Answer: EC50 [1]: 100 to 1000 nM; EC50 [2]: < 100 nM; EC50 [3]: 100 to 1000 nM

Question: How did the EC50 [1] turn out when `Cc1cccc([C@H](c2ccc(F)cc2)[C@H]2[C@H]3CCCN3C(=O)c3c(O)c(=O)cnn32)c1` [Example 10, (9aR,10S)-10-((S)-(4-fluorophenyl)(m-tolyl)methyl)-4-hydroxy-8,9,9a,10-tetrahydro-7H-pyrrolo[1′,2′:4,5]pyrazino[1,2-b]pyridazine-3,5-dione] was run?
Answer: The EC50 was < 100 nM.

Question: And the EC50 [2]?
Answer: The EC50 was < 100 nM.

Question: What about the EC50 [3] of the same molecule?
Answer: Its EC50 is < 100 nM.

Question: For `Cc1c([C@@H](c2cccc(F)c2)[C@H]2[C@H]3CCCN3C(=O)c3c(O)c(=O)cnn32)ccc(F)c1F` [Example 11, (9aR,10S)-10-((R)-(3,4-difluoro-2-methylphenyl)(3-fluorophenyl)methyl)-4-hydroxy-8,9,9a,10-tetrahydro-7H-pyrrolo[1′,2′:4,5]pyrazino[1,2-b]pyridazine-3,5-dione], which EC50 [1] is on record?
Answer: The EC50 was < 100 nM.

Question: And the EC50 [2]?
Answer: The EC50 was < 100 nM.

Question: What about the EC50 [3] of the same molecule?
Answer: Its EC50 is < 100 nM.

Question: With `Cc1cccc([C@@H](c2cccc(F)c2)[C@H]2[C@H]3CCCN3C(=O)c3c(O)c(=O)cnn32)c1F` [Example 12, (9aR,10S)-10-((R)-(2-fluoro-3-methylphenyl)(3-fluorophenyl)methyl)-4-hydroxy-8,9,9a,10-tetrahydro-7H-pyrrolo[1′,2′:4,5]pyrazino[1,2-b]pyridazine-3,5-dione] as the molecule, how does the EC50 [1] read?
Answer: Its EC50 is 100 to 1000 nM.

Question: And the EC50 [2]?
Answer: The EC50 was 100 to 1000 nM.

Question: And the EC50 [3]?
Answer: The EC50 was 100 to 1000 nM.

Question: What does the source list for `O=C1c2c(O)c(=O)cnn2[C@@H](C(c2cccc(F)c2)c2cccc(F)c2)[C@H]2CC(F)(F)CN12` [Example 13, (9aR,10S)-10-(bis(3-fluorophenyl)methyl)-8,8-difluoro-4-hydroxy-8,9,9a,10-tetrahydro-7H-pyrrolo[1′,2′:4,5]pyrazino[1,2-b]pyridazine-3,5-dione]?
Answer: EC50 [1]: ≥ 1000 nM; EC50 [2]: 100 to 1000 nM; EC50 [3]: ≥ 1000 nM

Question: How did the EC50 [1] turn out when `O=C1c2c(O)c(=O)cnn2[C@@H]([C@H](c2ccccc2)c2cccc(F)c2F)[C@@H]2COCCN12` [Example 14, (10aR,11S)-11-((R)-(2,3-difluorophenyl)(phenyl)methyl)-4-hydroxy-7,8,10a,11-tetrahydro-10H-pyridazino[1′,6′:4,5]pyrazino[2,1-c][1,4]oxazine-3,5-dione] was run?
Answer: The EC50 was < 100 nM.

Question: What about the EC50 [2] of the same molecule?
Answer: Its EC50 is < 100 nM.

Question: And the EC50 [3]?
Answer: The EC50 was < 100 nM.

Question: What does the source list for `Cc1c(F)cccc1[C@@H](c1cccc(F)c1)[C@H]1[C@H]2CCCN2C(=O)c2c(O)c(=O)cnn21` [Example 15, (9aR,10S)-10-((R)-(3-fluoro-2-methylphenyl)(3-fluorophenyl)methyl)-4-hydroxy-8,9,9a,10-tetrahydro-7H-pyrrolo[1′,2′:4,5]pyrazino[1,2-b]pyridazine-3,5-dione]?
Answer: EC50 [1]: < 100 nM; EC50 [2]: < 100 nM; EC50 [3]: < 100 nM

Question: How did the EC50 [1] turn out when `O=C1c2c(O)c(=O)cnn2[C@@H]([C@H](c2ccccc2)c2c(F)ccc(F)c2F)[C@H]2CCCN12` [Example 16, (9aR,10S)-4-hydroxy-10-((R)-phenyl(2,3,6-trifluorophenyl)methyl)-8,9,9a,10-tetrahydro-7H-pyrrolo[1′,2′:4,5]pyrazino[1,2-b]pyridazine-3,5-dione] was run?
Answer: Its EC50 is < 100 nM.

Question: And the EC50 [2]?
Answer: Its EC50 is < 100 nM.

Question: And the EC50 [3]?
Answer: The EC50 was < 100 nM.

Question: How did the EC50 [1] turn out when `Cc1ccccc1[C@H](c1cccc(C)c1F)[C@H]1[C@H]2CCCN2C(=O)c2c(O)c(=O)cnn21` [Example 17, (9aR,10S)-10-((R)-(2-fluoro-3-methylphenyl)(o-tolyl)methyl)-4-hydroxy-8,9,9a,10-tetrahydro-7H-pyrrolo[1′,2′:4,5]pyrazino[1,2-b]pyridazine-3,5-dione] was run?
Answer: Its EC50 is 100 to 1000 nM.

Question: What about the EC50 [2] of the same molecule?
Answer: Its EC50 is < 100 nM.

Question: And the EC50 [3]?
Answer: Its EC50 is 100 to 1000 nM.

Question: `Cc1c(F)cccc1[C@@H](c1ccc(F)cc1)[C@H]1[C@H]2CCCN2C(=O)c2c(O)c(=O)cnn21` [Example 18, (9aR,10S)-10-((R)-(3-fluoro-2-methylphenyl)(4-fluorophenyl)methyl)-4-hydroxy-8,9,9a,10-tetrahydro-7H-pyrrolo[1′,2′:4,5]pyrazino[1,2-b]pyridazine-3,5-dione] was tested. Which EC50 [1] did it give?
Answer: Its EC50 is < 100 nM.

Question: What about the EC50 [2] of the same molecule?
Answer: Its EC50 is < 100 nM.

Question: And the EC50 [3]?
Answer: Its EC50 is < 100 nM.

Question: Which results are given for `Cc1c(F)cccc1[C@@H](c1ccccc1)[C@H]1[C@H]2CCCN2C(=O)c2c(O)c(=O)cnn21` [Example 19, (9aR,10S)-10-((R)-(3-fluoro-2-methylphenyl)(phenyl)methyl)-4-(|1-oxidanyl)-8,9,9a,10-tetrahydro-7H-pyrrolo[1′,2′:4,5]pyrazino[1,2-b]pyridazine-3,5-dione]?
Answer: EC50 [1]: < 100 nM; EC50 [2]: < 100 nM; EC50 [3]: < 100 nM

Question: How did the EC50 [1] turn out when `O=C1c2c(O)c(=O)cnn2[C@@H]([C@H](c2ccc(F)cc2)c2cccc(C(F)(F)F)c2)[C@H]2CCCN12` [Example 20, (9aR,10S)-10-((R)-(4-fluorophenyl)(3-(trifluoromethyl)phenyl)methyl)-4-hydroxy-8,9,9a,10-tetrahydro-7H-pyrrolo[1′,2′:4,5]pyrazino[1,2-b]pyridazine-3,5-dione] was run?
Answer: Its EC50 is 100 to 1000 nM.

Question: And the EC50 [2]?
Answer: Its EC50 is 100 to 1000 nM.

Question: And the EC50 [3]?
Answer: The EC50 was 100 to 1000 nM.

Question: With `O=C1c2c(O)c(=O)cnn2[C@@H]([C@H](c2ccc(F)cc2)c2ccc(C(F)(F)F)cc2)[C@H]2CCCN12` [Example 21, (9aR,10S)-10-((S)-(4-fluorophenyl)(4-(trifluoromethyl)phenyl)methyl)-4-hydroxy-8,9,9a,10-tetrahydro-7H-pyrrolo[1′,2′:4,5]pyrazino[1,2-b]pyridazine-3,5-dione] as the molecule, how does the EC50 [1] read?
Answer: The EC50 was 100 to 1000 nM.

Question: And the EC50 [2]?
Answer: Its EC50 is 100 to 1000 nM.

Question: What about the EC50 [3] of the same molecule?
Answer: Its EC50 is 100 to 1000 nM.

Question: How did the EC50 [1] turn out when `O=C1c2c(O)c(=O)cnn2[C@@H]([C@H](c2ccc(F)cc2)c2cccc(OC(F)(F)F)c2)[C@H]2CCCN12` [Example 22, (9aR,10S)-10-((R)-(4-fluorophenyl)(3-(trifluoromethoxy)phenyl)methyl)-4-hydroxy-8,9,9a,10-tetrahydro-7H-pyrrolo[1′,2′:4,5]pyrazino[1,2-b]pyridazine-3,5-dione] was run?
Answer: Its EC50 is 100 to 1000 nM.

Question: What about the EC50 [2] of the same molecule?
Answer: The EC50 was 100 to 1000 nM.

Question: What about the EC50 [3] of the same molecule?
Answer: Its EC50 is 100 to 1000 nM.

Question: With `O=C1c2c(O)c(=O)cnn2[C@@H]([C@H](c2ccc(F)cc2)c2ccc(OC(F)(F)F)cc2)[C@H]2CCCN12` [Example 23, (9aR,10S)-10-((S)-(4-fluorophenyl)(4-(trifluoromethoxy)phenyl)methyl)-4-hydroxy-8,9,9a,10-tetrahydro-7H-pyrrolo[1′,2′:4,5]pyrazino[1,2-b]pyridazine-3,5-dione] as the molecule, how does the EC50 [1] read?
Answer: The EC50 was ≥ 1000 nM.

Question: What about the EC50 [2] of the same molecule?
Answer: Its EC50 is 100 to 1000 nM.

Question: What about the EC50 [3] of the same molecule?
Answer: The EC50 was 100 to 1000 nM.

Question: How did the EC50 [1] turn out when `COc1cccc([C@@H](c2ccc(F)cc2)[C@H]2[C@H]3CCCN3C(=O)c3c(O)c(=O)cnn32)c1` [Example 24, (9aR,10S)-10-((R)-(4-fluorophenyl)(3-methoxyphenyl)methyl)-4-hydroxy-8,9,9a,10-tetrahydro-7H-pyrrolo[1′,2′:4,5]pyrazino[1,2-b]pyridazine-3,5-dione] was run?
Answer: The EC50 was 100 to 1000 nM.

Question: And the EC50 [2]?
Answer: Its EC50 is 100 to 1000 nM.

Question: And the EC50 [3]?
Answer: The EC50 was 100 to 1000 nM.

Question: What does the source list for `COc1ccccc1[C@@H](c1ccc(F)cc1)[C@H]1[C@H]2CCCN2C(=O)c2c(O)c(=O)cnn21` [Example 25, (9aR,10S)-10-((R)-(4-fluorophenyl)(2-methoxyphenyl)methyl)-4-hydroxy-8,9,9a,10-tetrahydro-7H-pyrrolo[1′,2′:4,5]pyrazino[1,2-b]pyridazine-3,5-dione]?
Answer: EC50 [1]: 100 to 1000 nM; EC50 [2]: 100 to 1000 nM; EC50 [3]: 100 to 1000 nM

Question: Which EC50 [1] does the source give for `COc1ccc([C@@H](c2ccc(F)cc2)[C@H]2[C@H]3CCCN3C(=O)c3c(O)c(=O)cnn32)cc1` [Example 26, (9aR,10S)-10-((S)-(4-fluorophenyl)(4-methoxyphenyl)methyl)-4-hydroxy-8,9,9a,10-tetrahydro-7H-pyrrolo[1′,2′:4,5]pyrazino[1,2-b]pyridazine-3,5-dione] here?
Answer: The EC50 was 100 to 1000 nM.

Question: And the EC50 [2]?
Answer: Its EC50 is 100 to 1000 nM.

Question: And the EC50 [3]?
Answer: The EC50 was 100 to 1000 nM.

Question: For `O=C1c2c(O)c(=O)cnn2[C@@H]([C@@H](c2ccc(F)c(F)c2)c2cccc(F)c2F)[C@H]2CCCN12` [Example 27, (9aR,10S)-10-((S)-(2,3-difluorophenyl)(3,4-difluorophenyl)methyl)-4-hydroxy-8,9,9a,10-tetrahydro-7H-pyrrolo[1′,2′:4,5]pyrazino[1,2-b]pyridazine-3,5-dione], which EC50 [1] is on record?
Answer: Its EC50 is 100 to 1000 nM.

Question: And the EC50 [2]?
Answer: The EC50 was < 100 nM.

Question: What about the EC50 [3] of the same molecule?
Answer: Its EC50 is < 100 nM.

Question: `O=C1c2c(O)c(=O)cnn2[C@@H]([C@@H](c2ccccc2F)c2cccc(F)c2F)[C@H]2CCCN12` [Example 28, (9aR,10S)-10-((S)-(2,3-difluorophenyl)(2-fluorophenyl)methyl)-4-hydroxy-8,9,9a,10-tetrahydro-7H-pyrrolo[1′,2′:4,5]pyrazino[1,2-b]pyridazine-3,5-dione] was tested. Which EC50 [1] did it give?
Answer: The EC50 was < 100 nM.

Question: What about the EC50 [2] of the same molecule?
Answer: The EC50 was < 100 nM.

Question: And the EC50 [3]?
Answer: Its EC50 is < 100 nM.
